Data as given in patent US11000710B2, “Composition and method for the generation of chlorine dioxide from the oxidative consumption of biomolecules” (priority 2009, dated 2021).

Assay: Level of HClO2 and ClO2^• producible from ClO2^− as a function of pH
Assay type: physicochemical

With [O][Cl+][O-] [ClO2^•, chlorine dioxide] the “total ClO2^• producible, maximum percentage of total oxyhalogen oxidant” value (pH 4.50) was at most 0.32% and the “total ClO2^• producible, maximum percentage of total oxyhalogen oxidant” value (pH 7.00) was at most 0.0010%.

For [O-][Cl+]O [HClO2], the “level of HClO2 generated, of total available oxyhalogen oxidant” value (pH 4.50) was 0.64% and the “level of HClO2 generated, of total available oxyhalogen oxidant” value (pH 7.00) was 0.0020%.
